According to paper PMC8143339, “PK/PD Modeling of the PDE7 Inhibitor—GRMS-55 in a Mouse Model of Autoimmune Hepatitis” (Pharmaceutics, 2021):
“Also recorded” adds a separate entry of the source.

What was measured:
ConA-induced hepatitis = experiment: Preliminary pharmacological evaluation in ConA-induced hepatitis; assay type: in vivo, BALB/c mice; conditions: 8 h after ConA 20 mg/kg IV; IP pretreatment: rolipram 10, BRL-50481 50, GRMS-55 50 mg/kg; vs vehicle control
Protocol: ConA was dissolved in sterile saline (2 mg·mL^−1). The studied compounds (GRMS-55, rolipram, and BRL-50481) were dissolved in a mixture of DMSO, PEG 400, and water for injection at a ratio of 25:25:50 (v/v/v). Mice were given an IP injection of the investigated compounds or the corresponding volume of vehicle alone and, thirty minutes later, intravenously (IV) administered with ConA solution. An additional control group received vehicle alone IP instead of the studied compounds followed by IV injection of sterile saline. ConA was given at a dose of 20 mg·kg^−1. Mice were exsanguinated at several time points post-ConA injection. Blood samples were allowed to clot for 0.5 h at room temperature and then centrifuged at 3000× g for 10 min to obtain the serum, which was stored at −20 °C until further analysis.
The influence of PDE inhibitors on the levels of inflammatory mediators and transaminases in ConA-treated mice was investigated in two separate experiments. In the preliminary study, the animals were pretreated IP with GRMS-55 at a dose of 50 mg·kg^−1, the PDE4-selective inhibitor rolipram at a dose of 10 mg·kg^−1, or the PDE7-selective inhibitor BRL-50481 at a dose of 50 mg·kg^−1. Doses of the investigated compounds were chosen based on the results of previous studies. Subsequently, mice were given an IV injection of ConA and sacrificed at 8 h following mitogen dosing. The levels of TNF-α, IL-6, and IFN-γ and the activities of ALT and AST in the mouse serum were measured. This preliminary experiment allowed comparing the activity of the studied PDE inhibitors in this AIH model and helped to select the doses of GRMS-55 for a subsequent pharmacodynamic study. In the final pharmacodynamic experiment, GRMS-55 was administered at two dose levels (50 and 100 mg·kg^−1) followed by ConA administration at a dose of 20 mg·kg^−1. Animals were sacrificed at various time points post-ConA dosing (1, 2, 4, 8 and 24 h). The levels of TNF-α, IL-1β, IL-4, IL-6, IL-10, IL-12, IL-17A, and IFN-γ were measured using a multiplex Luminex assay. In addition, the activities of ALT and AST in the mouse serum were assessed. The concentration–time profiles of the selected biomarkers obtained in this experiment combined with the results of pharmacokinetic analysis allowed the development of a semi-mechanistic PK/PD/disease progression model and the investigation of concentration–effect relationships of GRMS-55.
The serum samples from the preliminary pharmacological study were analyzed using ELISA tests according to the protocols provided by the manufacturers. The TNF-α concentrations were measured using the Mouse TNF-α Quantikine ELISA Kit (R&D Systems, Minneapolis, MN, USA), while the concentrations of IL-6 and IFN-gamma were quantified by ELISA kits manufactured by Cloud-Clone Corp. (Houston, TX, USA). The absorbance of samples was measured on a POLARstar Omega multi-mode microplate reader (BMG LABTECH, Ortenberg, Germany) set at 450 nm wavelength. TNF-α, IL-1β, IL-6, IL-4, IL-10, IL-12, IL-17A, and IFN-γ serum levels in samples from pharmacodynamic experiment were determined by a premixed Magnetic Luminex Assay (R&D Systems, Inc., Minneapolis, MN, USA) according to the manufacturer’s protocol. Serum AST and ALT activities were quantified on a chemistry analyzer BS-800 (Shenzhen Mindray Bio-medical Electronics Co., Ltd., Shenzhen, China).

[1] = design: method as in PMID 31899535; conditions: cited from earlier work
[2] = test system: paw edema in collagen-induced arthritis; design: method as in PMID 31899535; conditions: rats with collagen-induced arthritis, PK/PD arthritis progression model; cited from earlier work
PDE7A = experiment: in vitro PDE7A inhibition assay; assay type: biochemical; conditions: ratio of IC50 values
PDE3A = test system: PDE3A; design: method as in PMID 31899535; conditions: cited from earlier work
PDE4D = test system: PDE4D; design: method as in PMID 31899535; conditions: in vitro assay at concentrations up to 200 µM; cited from earlier work
PDE1B = test system: PDE1B; design: method as in PMID 31899535; conditions: cited from earlier work

Structure (SMILES): Cn1c(=O)c2c(nc(NCCc3ccccc3)n2CCCC(=O)NN=Cc2ccccc2O)n(C)c1=O [GRMS-55, 4-(1,3-dimethyl-2,6-dioxo-8-(phenethylamino)-1,2,3,6-tetrahydro-7H-purin-7-yl)-N′-(2-hydroxybenzylidene)butanehydrazide]
- effect on serum IL-6 concentration (ConA-induced hepatitis): decreased
- apparent volume of distribution at steady state ([1]; male Wistar rats): ~7 L/kg
- half-life ([1]; male and female rats): approximately 20 min
- IC50, decrease of paw edema [2]: 0.26 µg/mL
- times weaker PDE7A inhibitor than BRL-50481 (PDE7A): 3.5
- potency of PDE3A suppression (PDE3A): moderate
- PDE4D inhibition (PDE4D): not found to inhibit; also recorded: not active
- potency of PDE1B suppression (PDE1B): high
